Article PMC8219027, “A small-molecule inhibitor of the BRCA2-RAD51 interaction modulates RAD51 assembly and potentiates DNA damage-induced cell death” (Cell Chemical Biology, 2021)

What was measured:
[1] = tested on: HepG2; test: cells; conditions: Homo sapiens, HepG2, read-out: Absolute EC50, growth inhibition
[2] = tested on: A549; test: cells; conditions: Homo sapiens, A549, read-out: Absolute EC50, growth inhibition
[3] = tested on: A375; test: cells; conditions: Homo sapiens, A-375, read-out: Absolute EC50, growth inhibition
[4] = target: T1, CYP450 2D6 (Homo sapiens, UniProt P10635); test: CYP450 inhibition; type: in vitro ADME
T1 construct: Cyprotex (contract data)

[5] = tested on: Calu3; test: cells; conditions: Homo sapiens, Calu-3, read-out: Absolute EC50, growth inhibition
[6] = tested on: Caco-2; test: Caco-2 permeability; type: in vitro ADME; conditions: summary of Table S1
[7] = Caco-2 permeability; type: in vitro ADME; conditions: human, Caco-2
[8] = tested on: SK-MEL-24; test: cells; conditions: Homo sapiens, SK-MEL-24, read-out: Absolute EC50, growth inhibition
[9] = target: T2, CYP450 1A2 (Homo sapiens, UniProt P05177); test: CYP450 inhibition; type: in vitro ADME
T2 construct: Cyprotex (contract data)

[10] = tested on: OVCAR3; test: cells; conditions: Homo sapiens, OVCAR-3, read-out: Absolute EC50, growth inhibition
[11] = target: T3, CYP450 2C9 (Homo sapiens, UniProt P11712); test: CYP450 inhibition; type: in vitro ADME
T3 construct: Cyprotex (contract data)

[12] = tested on: RT112/84; test: cells; conditions: Homo sapiens, RT112/84, read-out: Absolute EC50, growth inhibition
[13] = tested on: BT20; test: cells; conditions: Homo sapiens, BT-20, read-out: Absolute EC50, growth inhibition
[14] = Mouse oral screen; conditions: male, CD-1, mouse, in vivo, 50 mg/kg
[15] = tested on: U118MG; test: cells; conditions: Homo sapiens, U-118-MG, read-out: Absolute EC50, growth inhibition
[16] = tested on: A2780; test: cells; conditions: Homo sapiens, A2780, read-out: Absolute EC50, growth inhibition
[17] = tested on: HCT116; test: cells; conditions: Homo sapiens, HCT-116, read-out: Absolute EC50, growth inhibition
[18] = tested on: BT549; test: cells; conditions: Homo sapiens, BT-549, read-out: Absolute EC50, growth inhibition
[19] = tested on: LN229; test: cells; conditions: Homo sapiens, LN-229, read-out: Absolute EC50, growth inhibition
[20] = Microsomal intrinsic clearance; conditions: rat, rat microsomes
[21] = tested on: T.Tn; test: cells; conditions: Homo sapiens, read-out: Absolute EC50, growth inhibition
[22] = tested on: SW756; test: cells; conditions: Homo sapiens, SW756, read-out: Absolute EC50, growth inhibition
[23] = tested on: U87; test: cells; conditions: Homo sapiens, U-87 MG, read-out: Absolute EC50, growth inhibition
[24] = target: T4, CYP450 3A4 (Homo sapiens, UniProt P08684); test: CYP450 inhibition; type: in vitro ADME
T4 construct: Cyprotex (contract data)
T4 sequence (P08684 whole entry): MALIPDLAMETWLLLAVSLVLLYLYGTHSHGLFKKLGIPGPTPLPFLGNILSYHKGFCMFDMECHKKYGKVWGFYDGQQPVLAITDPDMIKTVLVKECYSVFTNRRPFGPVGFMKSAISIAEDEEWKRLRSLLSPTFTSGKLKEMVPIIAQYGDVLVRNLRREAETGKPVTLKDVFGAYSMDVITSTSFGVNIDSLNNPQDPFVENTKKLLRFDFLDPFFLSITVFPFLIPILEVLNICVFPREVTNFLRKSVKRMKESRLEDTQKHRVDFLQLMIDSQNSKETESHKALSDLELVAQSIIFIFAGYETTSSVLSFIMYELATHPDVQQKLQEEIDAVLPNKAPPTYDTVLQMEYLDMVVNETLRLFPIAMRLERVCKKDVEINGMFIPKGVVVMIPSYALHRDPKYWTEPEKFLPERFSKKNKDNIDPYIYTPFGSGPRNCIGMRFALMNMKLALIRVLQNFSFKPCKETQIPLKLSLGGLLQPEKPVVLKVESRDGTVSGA

T3 sequence (P11712 whole entry): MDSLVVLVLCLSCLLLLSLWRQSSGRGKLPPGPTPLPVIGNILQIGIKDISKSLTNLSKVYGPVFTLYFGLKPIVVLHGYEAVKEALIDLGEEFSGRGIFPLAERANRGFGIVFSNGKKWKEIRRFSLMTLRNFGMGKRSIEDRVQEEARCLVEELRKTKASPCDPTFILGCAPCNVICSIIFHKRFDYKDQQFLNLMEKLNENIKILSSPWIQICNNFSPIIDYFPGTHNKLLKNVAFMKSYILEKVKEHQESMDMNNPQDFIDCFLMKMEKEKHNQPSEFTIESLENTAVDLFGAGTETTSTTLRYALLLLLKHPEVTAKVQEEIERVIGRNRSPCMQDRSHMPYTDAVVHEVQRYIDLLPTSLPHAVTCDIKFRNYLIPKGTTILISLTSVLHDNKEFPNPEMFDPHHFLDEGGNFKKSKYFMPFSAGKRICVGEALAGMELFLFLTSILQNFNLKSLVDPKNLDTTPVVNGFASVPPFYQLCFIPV
T2 sequence (P05177 whole entry): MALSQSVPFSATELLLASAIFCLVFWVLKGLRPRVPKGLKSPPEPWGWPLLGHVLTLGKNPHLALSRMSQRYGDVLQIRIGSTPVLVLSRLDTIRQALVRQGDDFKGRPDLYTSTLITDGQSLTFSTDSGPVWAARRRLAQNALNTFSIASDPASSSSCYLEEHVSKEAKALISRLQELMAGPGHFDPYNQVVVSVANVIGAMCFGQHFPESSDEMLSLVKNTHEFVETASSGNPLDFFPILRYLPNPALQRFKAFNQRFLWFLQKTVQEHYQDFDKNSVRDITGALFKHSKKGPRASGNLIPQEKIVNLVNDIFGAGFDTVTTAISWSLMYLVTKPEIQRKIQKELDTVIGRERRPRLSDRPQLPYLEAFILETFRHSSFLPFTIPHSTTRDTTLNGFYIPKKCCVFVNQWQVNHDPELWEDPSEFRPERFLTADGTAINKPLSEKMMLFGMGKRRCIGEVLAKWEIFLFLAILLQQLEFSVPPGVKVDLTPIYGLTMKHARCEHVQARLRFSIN
T1 sequence (P10635 whole entry): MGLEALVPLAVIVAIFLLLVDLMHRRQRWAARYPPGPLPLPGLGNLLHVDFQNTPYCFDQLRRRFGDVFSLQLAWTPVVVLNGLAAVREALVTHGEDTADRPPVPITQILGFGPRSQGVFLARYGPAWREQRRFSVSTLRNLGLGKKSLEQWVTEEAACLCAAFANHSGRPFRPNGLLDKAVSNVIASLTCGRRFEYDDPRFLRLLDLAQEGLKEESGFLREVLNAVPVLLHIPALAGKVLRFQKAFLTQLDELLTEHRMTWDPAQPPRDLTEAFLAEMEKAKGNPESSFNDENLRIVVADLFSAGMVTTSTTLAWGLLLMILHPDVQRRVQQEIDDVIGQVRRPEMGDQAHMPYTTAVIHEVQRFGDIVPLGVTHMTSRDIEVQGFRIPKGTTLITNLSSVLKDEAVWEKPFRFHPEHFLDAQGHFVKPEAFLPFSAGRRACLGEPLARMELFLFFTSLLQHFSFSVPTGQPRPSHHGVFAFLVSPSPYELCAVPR

What does the source list for COc1ccc([C@H](C)NC(=O)[C@@H]2C[C@@H](O)CN2C(=O)CNC(=O)c2ccc3cc(F)ccc3n2)c(Cl)c1 [CAM833, N-(2-((2S,4R)-2-(((S)-1-(2-chloro-4-methoxyphenyl)ethyl)carbamoyl)-4-hydroxypyrrolidin-1-yl)-2-oxoethyl)-6-fluoroquinoline-2-carboxamide]?
EC50 [1]: 68.1 µM; EC50 [2]: 39 µM; EC50 [3]: 72 µM; IC50 [4]: > 25 µM; EC50 [5]: 83.3 µM; permeability (in words) [6]: moderate; efflux ratio [7]: 195; Papp A→B ([7]; A to B, read-out: Caco-2 permeability AtoB Papp): 0.23 ×10⁻⁶ cm/s; EC50 [8]: 144 µM; IC50 [9]: > 25 µM; EC50 [10]: 53.6 µM; IC50 [11]: > 25 µM; EC50 [12]: 70.6 µM; EC50 [13]: 61.9 µM; Cmax [14]: 8320 ng/mL; bioavailability [14]: 44%; EC50 [15]: 90.3 µM; EC50 [16]: 46.5 µM; EC50 [17]: 63.5 µM; EC50 [18]: 73.8 µM; EC50 [19]: 117 µM; half-life [20]: 47.9 min; microsomal CLint [20]: 28.9 ± 4.16 µL/min/mg; EC50 [21]: 55.8 µM; EC50 [22]: 124 µM; EC50 [23]: 109 µM; IC50 ([24]; 3A4 midazolam site): > 25 µM; IC50 ([24]; 3A4 testosterone site): > 25 µM
